How the values were obtained:
[1] = tested on: Mia PaCa-2 cells; test: Spheroid assay in matrigel (3D culture); assay type: cell-based, human; settings: warfarin 200 ng/ml, 7 days
Experimental: FIGS. 25A-I. Axl inhibition reduces colony formation and enhances chemotherapy. (FIGS. 25A-C) parental Mia PaCa-2 cells or Mia PaCa-2 cells stably transfected with shRNA targeting Axl (Mia shAxl) were grown as spheroids in matrigel for 7 days in the presence or absence of warfarin (200 ng/ml), n=4/condition. Mia PaCa-2 cell colonies form large stellate colonies characteristic of invasive tumor growth. Colonies and cognate cell projections were imaged (FIG. 25A) with a Nikon Phase contrast microscope using 40× and 200× magnification. Mean total colony number (FIG. 25B) and total colony area+/−s.d. (FIG. 25C) reflective of invasive growth were calculated using Image J image analysis. […] (FIG. 25E) liver metastases were quantified after intrasplenic injection of C5LM2 cells. […] Mice were sacrificed when control treated animals were moribund and primary and metastatic burden was determined. […]
For spheroid assays, matrigel was coated on 18×18 mm glass cover-slides in a 35 mm culture dish, using Reduced Growth Factor Matrigel (BD Bioscience) as described previously (Gjerdrum et al., 2010; Lee et al., 2007). […] Quantitative analysis of 3D organotypic structures was performed using Image J analysis software. Total number of established structures and the ability of established structures to migrate into the BM (Total area) were quantified and compared.

[2] = tested on: orthotopic C5LM2 or Mia PaCa-2 tumors; test: Gemcitabine combinations in mice bearing established orthotopic tumors; assay type: in vivo, mouse; settings: combined with gemcitabine
Source text: Animal studies. All animals were housed in a pathogen-free facility with 24-hour access to food and water. Experiments were approved by, and conducted in accordance with, an IACUC approved protocol at UT Southwestern. LSL-Kras^G12D; Cdkn2a^lox/lox; p48^Cre (KIC) mice were generated as previously described (Ostapoff et al., 2014). Four- to 6-week-old female NOD/SCID and C57/B16 mice were obtained from an on campus supplier. A total of 1×10^6 AsPc-1, Panc-1, Mia Paca2, Capan-1, C5LM2, Mia shLuc and Mia shAxl or 5×10^5 Pan02 cells, were injected orthotopically as described (Ostapoff et al., 2014). Mice with established tumors, as determined by sonography were randomized to receive normal drinking water or water containing 1 mg/L (˜3.0 μM) warfarin for experiments in immunocompromised mice and 0.5 mg/L (˜1.5 μM) in experiments in immunocompetent animals with or without gemcitabine 25 mg/kg twice weekly depending on experimental design.

[3] = biological target: T1, Axl (Homo sapiens, UniProt P30530); test: Phosphorylated Axl in Panc-1 cells (western blot, immunofluorescence); assay type: cell-based; settings: overnight, 1% serum, 2 μM
T1 construct: Lysates were probed for total Axl (tAxl) and phosphorylated Axl (pAxl); endogenous in cells; host or cells: Panc-1
T1 sequence (P30530 26-894): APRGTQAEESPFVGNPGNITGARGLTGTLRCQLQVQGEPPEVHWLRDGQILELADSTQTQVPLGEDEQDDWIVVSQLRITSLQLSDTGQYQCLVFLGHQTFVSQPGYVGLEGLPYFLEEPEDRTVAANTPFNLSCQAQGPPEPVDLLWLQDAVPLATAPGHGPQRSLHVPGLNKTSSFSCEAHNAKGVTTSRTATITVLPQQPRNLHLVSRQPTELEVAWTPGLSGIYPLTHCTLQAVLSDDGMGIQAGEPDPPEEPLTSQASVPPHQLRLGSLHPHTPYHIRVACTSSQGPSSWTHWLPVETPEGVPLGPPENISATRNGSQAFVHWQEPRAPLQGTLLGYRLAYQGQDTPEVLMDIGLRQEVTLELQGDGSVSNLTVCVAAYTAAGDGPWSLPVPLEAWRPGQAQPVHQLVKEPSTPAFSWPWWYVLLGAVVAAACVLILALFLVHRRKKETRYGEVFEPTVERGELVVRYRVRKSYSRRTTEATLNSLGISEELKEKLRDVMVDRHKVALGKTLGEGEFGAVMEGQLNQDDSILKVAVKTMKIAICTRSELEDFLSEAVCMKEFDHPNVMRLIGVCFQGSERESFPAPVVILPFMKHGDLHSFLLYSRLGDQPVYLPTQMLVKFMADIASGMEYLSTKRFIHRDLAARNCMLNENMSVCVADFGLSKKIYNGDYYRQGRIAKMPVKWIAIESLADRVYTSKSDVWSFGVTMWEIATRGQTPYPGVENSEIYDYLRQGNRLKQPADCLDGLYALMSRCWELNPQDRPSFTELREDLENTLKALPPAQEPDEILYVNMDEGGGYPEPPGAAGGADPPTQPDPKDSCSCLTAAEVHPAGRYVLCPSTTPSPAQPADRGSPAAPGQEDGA
Experimental: (FIG. 24A) HEK293 cells engineered to stably express recombinant Gas6 were grown in the presence of Vitamin K or Vitamin K+warfarin. Gas6 levels and γ-carboxylation were assayed by immunoblotting conditioned media. Conditioned media from untransfected HEK293 cells was used as a negative control. (FIG. 24B) Panc1 cells were grown overnight in media with 1% serum with no additions (NT), warfarin (2 μM) or BGB324 (2 μM). Lysates were probed for total Axl (tAxl) and phosphorylated Axl (pAxl). (FIG. 24C) Panc1 cells were grown in the presence of control media, Vitamin K, warfarin or warfarin+Vitamin K. The level of phosphorylated Axl (pAXL, red) was determined by immunofluorescence. (FIG. 24D) Panc1 cells were grown overnight in media with 1% serum with no additions (control), warfarin (1 μM), Gas6 (1.3 nM) or Gas6+warfarin. Lysates were probed for phosphorylated Akt (pAkt) and actin. (FIG. 24E) Lysates from Panc1 tumors harvested from mice treated with control or warfarin were probed for expression of tAxl, pAxl, actin, pAKT, tAKT, and cleaved Parp. (FIG. 24F) The effect of warfarin on cell migration was assessed by a ‘scratch’ assay. Monolayers of the indicted cells were wounded with a pipet tip. The cells were incubated in media containing 2% serum+/−warfarin (2 μM) or media containing 2% serum+Gas6 (1.3 nM)+/−warfarin.

[4] = tested on: Mia PaCa-2 cells; test: Mesenchymal/epithelial markers by ICC; assay type: cell-based, human; settings: warfarin, in vitro
Experimental: FIGS. 31A-B. Maintenance of mesenchymal phenotype is Axl dependent and inhibited by warfarin. (FIGS. 31A-B) Mia PaCa-2 cells were grown in 1% serum containing media the absence (Control) or presence of warfarin (2 μM) overnight. Cells were assessed for expression of phosphorylated Axl, nuclear Zeb1 (FIG. 31A) and vimentin and E-cadherin (FIG. 31B) by ICC. […] (FIG. 31B) Representative images of Vimentin and E-Cadherin expression are shown, total magnification 400×. Images were analyzed using Elements software. Welch's t-test*, p<0.05; **, p<0.01 vs control.
Signaling and functional assays. Cells were grown to confluence in […] or 4 well chamber slides and treated overnight with low serum (1-2%) media+/−warfarin (2 μM) or 10C9 (1.1 μM, 168 μg/ml) overnight. Cells were subsequently analyzed by western blot or immunocytochemsitry (ICC).

phosphorylation of Axl (pAxl) [3]: inhibited basal pAxl levels
SMILES: CC(=O)CC(c1ccccc1)c1c(O)c2ccccc2oc1=O (racemic) [Warfarin]
tumor cell sphere formation and invasiveness in 3D culture [1]: inhibited
augmentation of gemcitabine reduction of primary tumor growth and metastatic control [2]: augmented gemcitabine reduction of primary tumor growth
expression of the epithelial marker E-cadherin [4]: elevating
pAxl levels, surface Axl expression, Zeb1 and vimentin [4]: reduced
